Series [1] in a line: Purine levels in arterial plasma before, during and after adenosine-induced controlled hypotension (HPLC). Particulars: for concentration: Table I, mean ± SEM. The protocol: (§1) Blood gases were measured with appropriate electrodes for pH, PCO2, and PO2 (Radiometer, Copenhagen). The hemoglobin concentration was determined spectrophotometrically. Samples for the determination of adenosine and its metabolites were collected as described by Sollevi et al., Acta Physiol. Scand., 120: 171-76 (1984). Adenosine and inosine were purified and analyzed by HPLC as described by Fredholm and Sollevi., J. Physiol. (London), 313: 351-67 (1981). Hypoxanthine, xanthine, and uric acid were analyzed by HPLC according to the method of Schweinsberg and Loo., J. Chromatogr., 181: 103-7 (1980). Arterial levels of dipyridamole were determined by HPLC. J. Chromatogr., 162: 98-103 (1979). Blood lactate was measured according to Tfelt-Hansen and Siggard-Andersen. Scand. Clin. Lab. Invest., 27:15-19 (1971).
(§2) Measurements and blood samplings were performed immediately before hypotension, as late as possible during hypotension (1-5 min before terminating the infusion) and approximately 30 min after the hypotensive period.
(§3) Dipyridamole (5 mg. per ml) was infused iv (0.3-0.4 mg. per kg. over a period of 5-10 min) approximately 20 minutes prior to the induction of controlled hypotension. […] (See Pedersen, J. Chromatogr., 162: 98-103 (1979).
(§4) The infusion was started at a rate of 0.01 mg. per kg. per minute, which was doubled at 15 second intervals until the desired MABP level of 40-50 mmHg was reached. […] Serum creatinine was determined before and on two consecutive days after operation. The standard ECG was recorded the day before and the day after operation.
(§5) The statistical significance (control 1 vs. adenosine and control 1 vs. control 2) was determined by Student's t test for paired data. A P value of <0.05 was regarded as significant.
The purine levels of nine of the patients were determined prior to, during and after adenosine-induced controlled hypotension.

The nature of series [2]: Plasma adenosine and metabolite concentrations during cardiopulmonary bypass (HPLC). Particulars: for concentration: read-out: Venous concentration, 20 min. The protocol:
In six cases the plasma adenosine levels were determined by high performance liquid chromatography (HPLC) (Fredholm and Sollevi, J. Physiol. (London), 313: 351-67 (1981) in arterial and in venous (venous lines to the oxygenator) blood. The adenosine metabolites inosine, hypoxanthine and uric acid were also determined by HPLC. The samples were collected as previously described (Sollevi, Acta. Physiol. Scand., 121: 165-72 (1984) at the intervals of 10, 20, 40 and 80 minutes during CPB and 20 minutes after CPB.
Statistical significance (controls v. adenosine group) was determinted with Student's t-test for unpaired data. For significance within the groups the Wilcoxon Rank Sum test was used. p […] 0.05 was regarded as significant.

Series [3] relates to mean arterial blood pressure. Particulars: dipyridamole 1 mg/kg, dogs; cited from earlier work.
Series [4] relates to systemic arterial blood pressure and central hemodynamics. In words: Controlled hypotension during anesthesia: central hemodynamics (dipyridamole-pretreated cerebral aneurysm surgery patients). Particulars: in five of the patients. The protocol: One hour before the operation the patients were premedicated orally with diazepam (10-20 mg.) Atropine (0.5 mg) and droperidol (0.1 mg. per kg.) were given intravenously before induction of anesthesia. Induction was started with thiopental (5 mg. per kg) followed by phenoperidine (1-2 mg), a synthetic opiate with pharmacodymanics resembling fentanyl but with a longer duration of action and 1/10 of its analgesic potency.
Pancuronium bromide (0.1 mg per kg) was given to facilitate endotracheal intubation. Anesthesia was maintained by supplementary doses of phenoperidine and droperidol, as required. […] Phenoperidine was supplemented regularly to prevent the blood pressure from exceeding the preanesthetic level (approx. 1 mg/30-60 min). Controlled hyperventilation was employed with a humidified gas mixture of 60% N2 O in oxygen to maintain PaCO2 values at approximately 30 mmHg (±1.5/SEM). Mannitol (1-1.5 g. per kg) was given routinely at the start of the operation (e.g., 1-2 hours prior to the controlled hypotension). The patients were operated on in the horizontal supine position.
A 1.2-mm plastic cannula was introduced into the left radial artery to monitor systemic arterial blood pressure (MABP) and collect arterial blood. A balloon-tipped, flow-directed, quadruple lumen Swan-Ganz catheter (Model 93A-831-7.5 F, VIP) was inserted percutaneously via the left basilic vein, and its correct position in the pulmonary artery was determined by pressure tracings. The catheter was used for the monitoring of mean right atrial pressure (RAP), mean pulmonary artery pressure (PAP), and mean pulmonary capillary wedge pressure (PCWP) for the determination of cardiac output and collection of mixed venous blood and for the infusion of adenosine. Another plastic cannula was introduced percutaneously, in a retrograde direction, into the right jugular bulb for the collection of blood. The correct position was verified by x-ray.
The ECG was monitored with a standard chest (V5) lead. Heart rate was determined from the R-R interval. Blood pressures were measured by transducers placed at the midthoracic level. Cardiac output (QT) was determined in triplicate according to the thermodilution technique with a cardiac output computer (Edwards Lab, model 9510). Isotonic glucose, 10 ml at 1° C., was used as a thermal indicator. The ECG, heart rate, blood pressures, and thermodilution curves were recorded on a Grass® polygraph.
as §2, §3, §4
Systemic vascular resistance (SVR) was derived from the formula [formula] and pulmonary vascular resistance (PVR) from the formula [formula]
as §5

A short description of series [5]: Plasma level of dipyridamole (HPLC). The class given is in vivo, human. As to conditions: 0.3-0.4 mg/kg iv over 5-10 min; SEM; read-out: dipyridamole plasma level during hypotensive periods. The protocol:
as §1, §3

The test system of series [6] is adenosine uptake by red blood cells. Particulars: cited from earlier work.
Series [7] has as its system heart muscle. Particulars: injection; cited from earlier work.
The test system of series [8] is cardiovascular system. Particulars: cited from earlier work.
The subject of series [9] is myocardial blood flow. As to conditions: investigated in abdominal vascular surgery; words; cited from earlier work.
[10] abbreviates: during / after adenosine infusion, in words.
[11] abbreviates: read-out: Purine level in arterial plasma, after hypotension, 20-40 min, 20-40 min after hypotension.
Setting [12] is: read-out: Purine level in arterial plasma, during hypotension, during i.v. adenosine infusion, dipyridamole-pretreated.
The mark [13] stands for this setting: CPB 10', adenosine infusion 0.1 mg/kg/min, n = 6.
Setting [14] is: CPB 20', adenosine infusion 0.1 mg/kg/min, n = 6.
[15] abbreviates: CPB 40', adenosine infusion 0.1 mg/kg/min, n = 6.
[16] abbreviates: CPB 80', adenosine infusion 0.1 mg/kg/min, n = 6.
The mark [17] stands for this setting: human, venous plasma, iv, 0.1 mg/kg/min, Venous concentration.

Entries after “also recorded” stand apart in the source; their conditions may differ. Read-outs that look alike come from different tables or passages of the source.

With `O=c1[nH]cnc2nc[nH]c12` [Hypoxanthine, hypoxanthine], the “change of adenosine metabolite levels” value in [1] (in vivo) is listed as “increased during the infusion”. In series [2] (in vivo), the Arterial concentration turned out to be 4.2 ± 0.9 µM.

For `OC[C@H]1O[C@@H](n2cnc3c(O)ncnc32)[C@H](O)[C@@H]1O` [Inosine, inosine], the “change of adenosine metabolite levels” value in series [1] (setting [10]) is reported as “remained slightly above basal levels 20-40 minutes after the infusion”; in series [1] (during / after adenosine infusion, in words, listed as inosine) it was “increased during the infusion”. Besides, the concentration in series [1] (read-out: Purine level in arterial plasma, after hypotension, 3-9 min, 3-9 min after hypotension) was 690 ± 260 nM; in series [1] (setting [11]) it was 290 ± 150 nM; in series [1] (setting [12]) it was 3010 ± 1480 nM; in series [2] (20' post CPB, n = 6) it was 400 ± 100 nM; in series [2] (setting [14]), 2400 ± 1200 nM. The Arterial concentration in series [2] (20' post CPB, n = 6) stood at 0.4 ± 0.1 µM; in series [2] (setting [13]), 1.3 ± 0.7 µM; in series [2] (setting [14]), 2.5 ± 1.0 µM; in [2] (setting [15]) it was 1.2 ± 0.3 µM; in series [2] (setting [16]) it was 1.4 ± 0.4 µM. Besides, in series [2] (setting [17]), the concentration at 10 min was 900 ± 300 nM. In addition, in [2] (setting [17]), the concentration at 40 min stood at 1600 ± 500 nM. Also, in series [2] (setting [17]), the concentration at 80 min was found to be 1600 ± 400 nM. Moreover, the “metabolite elevation during infusion” value in series [2] (in vivo) is “consistently elevated”.

As to `O=c1[nH]c(=O)c2[nH]c(=O)[nH]c2[nH]1` [Uric Acid, uric acid], in series [1] (setting [10]), the “change of adenosine metabolite levels” value is on record as “unaffected”. Moreover, the concentration in series [1] (setting [11]) came to 200000 ± 28800 nM; in series [1] (setting [12]), 198000 ± 22700 nM. Also, the Arterial concentration was 260 ± 34 µM in [2] (20' post CPB, n = 6); 260 ± 32 µM in series [2] (setting [13]); 269 ± 35 µM in series [2] (setting [14]); 250 ± 32 µM in [2] (setting [15]); 249 ± 30 µM in series [2] (setting [16]).

Consider `O=c1[nH]c(=O)c2[nH]cnc2[nH]1` [Xanthine, xanthine], for which the “change of adenosine metabolite levels” value in [1] (in vivo) is reported as “unaffected”.

With `OCCN(CCO)c1nc(N2CCCCC2)c2nc(N(CCO)CCO)nc(N3CCCCC3)c2n1` [dipyridamole], in series [3], the “reduction of mean arterial blood pressure by dipyridamole” value is reported as 20%. The “decrease of MABP by dipyridamole infusion” value in series [4] is on record as “approximately 10 mmHg”. Further, the concentration in series [5] was 1200 ± 300 nM. Besides, the “adenosine uptake inhibition” value in series [6] is reported as “inhibiting cellular uptake of adenosine”; in series [6] (listed as Dipryridamol), “adenosine uptake inhibitor”. Also, the “redistribution of flow within heart muscle” value in series [7] was “augment the redistribution of flow within the heart muscle”.

Consider `NNc1nncc2ccccc12` [hydralazine], for which the “heart rate” value in series [8] (in vivo) was “increase heart rate”.

In the case of `FC(F)OC(Cl)C(F)(F)F` (stereo not drawn) [isoflurane], the “coronary flow / coronary blood flow” value in [9] is given as “no beneficial effect; also recorded: may reduce coronary blood flow”. In [8] (in vivo), the “cardiac blood flow” value is on record as “tendency to reduce cardiac blood flow”.

For the compound `COc1cc2nc(N3CCN(C(=O)c4ccco4)CC3)nc(N)c2cc1OC` [prazosin], in [8] (in vivo), the “heart rate” value is “increase heart rate”; the “onset and predictability of action” value is “slow onset and unpredictable action”.

In the case of `CCCCC[C@H](O)/C=C/[C@@H]1[C@H]2C/C(=C/CCCC(=O)O)O[C@H]2C[C@H]1O` [prostacyclin], the “systemic vasodilation and hypotension” value in series [8] (coronary bypass surgery) is “severe systemic vasodilation and hypotension”.

These data come from US5104859A, “Continuous administration of adenosine to reduce pulmonary vascular resistance” (priority 1990, dated 1992).
